Assay [1] has as its system MS751 cells. As to the kind of experiment: MTT cell proliferation assay, MS751. In kind it is cell-based, human. To be noted: Homo sapiens, MS751, MS751 cells, read-out: MTT Assay IC50, MS751. The gist of the method: (§1)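 Cells were seeded at 5,000-10,000 per well, left to attach overnight, then exposed to eight compound concentrations from 1 nM to 30 μM. After about 4 h with MTT, solubilized formazan was read at 490 nm and percent inhibition versus negative control was calculated.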

The test system of assay [2] is Z138 cells. As to the kind of experiment: MTT cell proliferation assay, Z138. Format: cell-based. The following applies: Homo sapiens, Z-138, Z138 cells, read-out: MTT Assay IC50, Z138. The gist of the method: as §1
Assay [3] concerns 3T3 cells. As to the kind of experiment: MTT cell proliferation assay, 3T3. Format: cell-based, mouse. To be noted: Mus musculus, NIH3T3, 3T3 cells, read-out: MTT Assay IC50, 3T3. The gist of the method:
as §1

Where [4] appears, read: approximately 64-72 hours incubation.
The mark [5] stands for this setting: eight concentrations 1 nM to 30 μM, incubation approximately 64-72 hours.

Like-named read-outs stand apart in the source and are kept apart here.

For `CC(C)(O)c1ccc(-c2cc(Cl)c3c(c2)CC(CNC(=O)/C=C/c2ccc(N)nc2)O3)s1` (stereo not drawn) [Compound 321, (E)-3-(6-aminopyridin-3-yl)-N-((7-chloro-5-(5-(2-hydroxypropan-2-yl)thiophen-2-yl)-2,3-dihydrobenzofuran-2-yl)methyl)acrylamide], the IC50 was 0.1 to 5 µM in assay [1] (setting [4]), under 0.1 µM in assay [2] (setting [4]) and 5 to 30 µM in assay [3] (setting [4]).
As for `O=C(/C=C/c1cccnc1)NCC1Cc2cc(-c3cccnc3)cc(Cl)c2O1` (stereo not drawn) [Compound 70, (E)-N-((7-chloro-5-(pyridin-3-yl)-2,3-dihydrobenzofuran-2-yl)methyl)-3-(pyridin-3-yl)acrylamide], the figures for the IC50 in assay [1] (setting [5]), in assay [2] (setting [5]) and in assay [3] (setting [5]) were 0.1 to 5 µM, 0.1 to 5 µM and 5 to 30 µM, respectively.
`Nc1ccc(/C=C/C(=O)NCC2Cc3cc(-c4ccc(C(=O)CN5CCOCC5)cc4)cc(Cl)c3O2)cn1` (stereo not drawn) [Compound 906, (E)-3-(6-Aminopyridin-3-yl)-N-((7-chloro-5-(4-(2-morpholinoacetyl)phenyl)-2,3-dihydrobenzofuran-2-yl)methyl)acrylamide]: the IC50 in assay [1] (setting [4]) is under 0.1 µM; in assay [2] (setting [4]), under 0.1 µM; in assay [3] (setting [4]), 0.1 to 5 µM.
Consider `CC(=O)c1ccc(-c2cc(Cl)c3c(c2)CC(CNC(=O)/C=C\c2cccnc2)O3)s1` (stereo not drawn) [Compound 299, (Z)-N-((5-(5-acetylthiophen-2-yl)-7-chloro-2,3-dihydrobenzofuran-2-yl)methyl)-3-(pyridin-3-yl)acrylamide], for which the IC50 in assay [1] (setting [4]) is 0.1 to 5 µM; in assay [2] (setting [4]), 0.1 to 5 µM; in assay [3] (setting [4]), over 30 µM.
With `Nc1ccc(/C=C/C(=O)NCC2Cc3cc(-c4ccc(C(=O)N5CCCCC5)cn4)cc(Cl)c3O2)cn1` (stereo not drawn) [Compound 339, (E)-3-(6-aminopyridin-3-yl)-N-((7-chloro-5-(5-(piperidine-1-carbonyl)pyridin-2-yl)-2,3-dihydrobenzofuran-2-yl)methyl)acrylamide], the IC50 in assay [1] (setting [4]) was 0.1 to 5 µM; in assay [2] (setting [4]), under 0.1 µM; in assay [3] (setting [4]) it was 5 to 30 µM.
Take `CC(C)(O)c1ccc(-c2cc(Cl)c3c(c2)CC(CNC(=O)/C=C/c2cccnn2)O3)s1` (stereo not drawn) [Compound 320, (E)-N-((7-chloro-5-(5-(2-hydroxypropan-2-yl)thiophen-2-yl)-2,3-dihydrobenzofuran-2-yl)methyl)-3-(pyridazin-3-yl)acrylamide]: the concentration for half-maximal inhibition (IC50) in assay [1] (setting [4]), in assay [2] (setting [4]) and in assay [3] (setting [4]) was 0.1 to 5 µM in each case.
Take `CC(=O)c1ccc(-c2cc(Cl)c3c(c2)CC(CNC(=O)/C=C/c2cnc4ccccc4n2)O3)s1` (stereo not drawn) [Compound 151, (E)-N-((5-(5-acetylthiophen-2-yl)-7-chloro-2,3-dihydrobenzofuran-2-yl)methyl)-3-(quinoxalin-2-yl)acrylamide]: the IC50 in assay [1] (setting [5]), in assay [2] (setting [5]) and in assay [3] (setting [5]) was over 30 µM in each case.
With `CC(=O)c1ccc(-c2cc(Cl)c3c(c2)CC(CNC(=O)/C=C/Cc2cccnc2)O3)s1` (stereo not drawn) [Compound 222, (E)-N-((5-(5-acetylthiophen-2-yl)-7-chloro-2,3-dihydrobenzofuran-2-yl)methyl)-4-(pyridin-3-yl)but-2-enamide], the IC50 in assay [1] (setting [4]) was 0.1 to 5 µM; in assay [2] (setting [4]), 0.1 to 5 µM; in assay [3] (setting [4]) it was 5 to 30 µM.
Regarding `Cc1noc(C)c1-c1cc(Cl)c2c(c1)CC(CNC(=O)/C=C/c1ccc(N)nc1)O2` (stereo not drawn) [Compound 300, (E)-3-(6-aminopyridin-3-yl)-N-((7-chloro-5-(3,5-dimethylisoxazol-4-yl)-2,3-dihydrobenzofuran-2-yl)methyl)acrylamide], the IC50 in assay [1] (setting [4]) is 0.1 to 5 µM; in assay [2] (setting [4]), under 0.1 µM; in assay [3] (setting [4]) it was over 30 µM.
For `Nc1ccc(/C=C/C(=O)NCC2Cc3cc(-c4ccc(C(=O)N5CC(F)(F)C5)c(F)c4F)cc(Cl)c3O2)cn1` (stereo not drawn) [Compound 337] the same measures were under 0.1 µM, under 0.1 µM and 0.1 to 5 µM.
As to `O=C(/C=C/c1cccnc1)NCC1Cc2cc(-c3cc(C(F)(F)F)cc(C(F)(F)F)c3)cc(Cl)c2O1` (stereo not drawn) [Compound 49, (E)-N-((5-(3,5-bis(trifluoromethyl)phenyl)-7-chloro-2,3-dihydrobenzofuran-2-yl)methyl)-3-(pyridin-3-yl)acrylamide], the IC50 in assay [1] (setting [5]), in assay [2] (setting [5]) and in assay [3] (setting [5]) was 0.1 to 5 µM in each case.
For `Cc1onc(-c2ccccc2)c1-c1cc(Cl)c2c(c1)CC(CNC(=O)/C=C/c1ccc(N)nc1)O2` (stereo not drawn) [Compound 325, (E)-3-(6-aminopyridin-3-yl)-N-((7-chloro-5-(5-methyl-3-phenylisoxazol-4-yl)-2,3-dihydrobenzofuran-2-yl)methyl)acrylamide], the concentration for half-maximal inhibition (IC50) in assay [1] (setting [4]) was 0.1 to 5 µM; in assay [2] (setting [4]) it was under 0.1 µM; in assay [3] (setting [4]), 0.1 to 5 µM.
As to `CC(=O)c1ccc(Oc2cc(Cl)c3c(c2)CC(CNC(=O)/C=C/c2cccnc2)O3)s1` (stereo not drawn) [Compound 303, (E)-N-((5-(5-acetylthiophen-2-yloxy)-7-chloro-2,3-dihydrobenzofuran-2-yl)methyl)-3-(pyridin-3-yl)acrylamide], the IC50 in assay [1] (setting [4]), in assay [2] (setting [4]) and in assay [3] (setting [4]) was 0.1 to 5 µM each time.
For the molecule `CC(=O)c1ccc(-c2cc(Cl)c3c(c2)CC(CNC(=O)/C=C/c2cc4cnn(C(C)C)c4[nH]c2=O)O3)s1` (stereo not drawn) [Compound 289, (E)-N-((5-(5-acetylthiophen-2-yl)-7-chloro-2,3-dihydrobenzofuran-2-yl)methyl)-3-(1-isopropyl-6-oxo-6,7-dihydro-1H-pyrazolo[3,4-b]pyridin-5-yl)acrylamide], the IC50 in assay [1] (setting [4]) was 5 to 30 µM; in assay [2] (setting [4]) it was 0.1 to 5 µM; in assay [3] (setting [4]), over 30 µM.
The like results for `CC(=O)c1ccc(-c2cc(Cl)c3c(c2)CC(CNC(=O)/C=C/c2cc(C)n(-c4ccccc4)c2C)O3)s1` (stereo not drawn) [Compound 301, (E)-N-((5-(5-Acetylthiophen-2-yl)-7-chloro-2,3-dihydrobenzofuran-2-yl)methyl)-3-(2,5-dimethyl-1-phenyl-1H-pyrrol-3-yl)acrylamide] were, in that order, over 30 µM, over 30 µM and over 30 µM.
For the molecule `CC(=O)c1ccc(-c2cc(Cl)c3c(c2)CC(CNC(=O)/C=C/c2cscn2)O3)s1` (stereo not drawn) [Compound 272, (E)-N-((5-(5-Acetylthiophen-2-yl)-7-chloro-2,3-dihydrobenzofuran-2-yl)methyl)-3-(thiazol-4-yl)acrylamide], the IC50 in assay [1] (setting [5]) is over 30 µM; in assay [2] (setting [5]) it was over 30 µM; in assay [3] (setting [5]), 5 to 30 µM.
As for `CC(=O)c1ccc(-c2cc(Cl)c3c(c2)CC(CNC(=O)/C=C/c2nccn2C)O3)s1` (stereo not drawn) [Compound 164, (E)-N-((5-(5-acetylthiophen-2-yl)-7-chloro-2,3-dihydrobenzofuran-2-yl)methyl)-3-(1-methyl-1H-imidazol-2-yl)acrylamide], the IC50 in assay [1] (setting [5]), in assay [2] (setting [5]) and in assay [3] (setting [5]) was over 30 µM in each case.
For `O=C(/C=C/c1cccnc1)NCC1Cc2cc(-c3ccc(Cl)cc3F)cc(Cl)c2O1` (stereo not drawn) [Compound 55, (E)-N-((7-chloro-5-(4-chloro-2-fluorophenyl)-2,3-dihydrobenzofuran-2-yl)methyl)-3-(pyridin-3-yl)acrylamide], the IC50 is 0.1 to 5 µM in assay [1] (setting [5]), 0.1 to 5 µM in assay [2] (setting [5]) and over 30 µM in assay [3] (setting [5]).
Consider `CC(=O)c1ccc(-c2cc(Cl)c3c(c2)CC(CNC(=O)/C=C/c2[nH]cnc2C)O3)s1` (stereo not drawn) [Compound 212, (E)-N-((5-(5-acetylthiophen-2-yl)-7-chloro-2,3-dihydrobenzofuran-2-yl)methyl)-3-(4-methyl-1H-imidazol-5-yl)acrylamide], for which the figures for the IC50 in assay [1] (setting [4]), in assay [2] (setting [4]) and in assay [3] (setting [4]) were 5 to 30 µM, 5 to 30 µM and over 30 µM, respectively.
With `CC(=O)c1ccc(-c2cc(Cl)c3c(c2)CC(CNC(=O)/C=C/c2sccc2C)O3)s1` (stereo not drawn) [Compound 152, (E)-N-((5-(5-acetylthiophen-2-yl)-7-chloro-2,3-dihydrobenzofuran-2-yl)methyl)-3-(3-methylthiophen-2-yl)acrylamide], the IC50 in assay [1] (setting [5]), in assay [2] (setting [5]) and in assay [3] (setting [5]) was over 30 µM in each case.
On to `CC(O)c1ccc(-c2cc(Cl)c3c(c2)CC(CNC(=O)/C=C/c2ccc(N)nc2)O3)s1` (stereo not drawn) [Compound 306, (E)-3-(6-aminopyridin-3-yl)-N-((7-chloro-5-(5-(1-hydroxyethyl)thiophen-2-yl)-2,3-dihydrobenzofuran-2-yl)methyl)acrylamide], for which the half-inhibitory concentration (IC50) in assay [1] (setting [4]) is 0.1 to 5 µM; in assay [2] (setting [4]) it was 0.1 to 5 µM; in assay [3] (setting [4]), over 30 µM.
As for `CC(=O)c1ccc(-c2cc(Cl)c3c(c2)CC(CNC(=O)/C=C/c2cccnn2)O3)s1` (single isomer, unassigned) [Compound 317, (E)-N-((5-(5-acetylthiophen-2-yl)-7-chloro-2,3-dihydrobenzofuran-2-yl)methyl)-3-(pyridazin-3-yl)acrylamide], the IC50 in assay [1] (setting [4]) is 0.1 to 5 µM; in assay [2] (setting [4]), 0.1 to 5 µM; in assay [3] (setting [4]), over 30 µM.
In the case of `Nc1ccc(CNC(=O)/C=C/C2Cc3cc(-c4ccc(C(=O)N5CC(F)(F)C5)cc4)cc(Cl)c3O2)cn1` (stereo not drawn) [Compound 351, (E)-N-((6-aminopyridin-3-yl)methyl)-3-(7-chloro-5-(4-(3,3-difluoroazetidine-1-carbonyl)phenyl)-2,3-dihydrobenzofuran-2-yl)acrylamide], the IC50 in assay [1] (setting [4]), in assay [2] (setting [4]) and in assay [3] (setting [4]) was 0.1 to 5 µM throughout.

Values taken from patent publication US9938258B2 (Karyopharm Therapeutics Inc., priority 2012, dated 2018).
